One data set relates to thrombocyte aggregation. As to the kind of experiment: Determination of the thrombocyte aggregation according to Born and Cross (collagen-provoked, platelet-rich plasma). The format is cell-based, healthy test persons. Conditions: collagen-induced aggregation. The procedure: TEST 1. DETERMINATION OF THE THROMBOCYTE AGGREGATION ACCORDING TO BORN AND CROSS [J. PHYSIOL. 170, 397 (1964)].
The thrombocyte aggregation was measured in platelet-rich plasma of healthy test persons. The decrease of the optical density was photometrically measured and recorded after addition of commercial collagen (Sigma, St. Louis, Mo., USA) which contained […] of collagen-fibrils per ml. The velocity of aggregation (Vmax) was determined by the angle of inclination of the density curve. The point of the curve, where the most light was transmitted, served for the determination of the optical density (o.d.). To provoke maximum aggregation, approximately 0.01 ml of the collagen solution was added to 1 ml of platelet-rich plasma.

The nature of data set [1]: Acute toxicity, single oral dose. The format is in vivo. Conditions: mouse, in vivo, po; read-out: Acute toxicity mg/kg p.o. The procedure:
(§1) The acute toxicity of the substances tested was determined in white mice after oral adminstration of a single dose (observation time: 14 days).

A further data set concerns white mice. As to the kind of experiment: Acute toxicity, single oral dose. The format is in vivo. The following applies: white mice, 14 days observation. The protocol: as §1
A further data set relates to cats. As to the kind of experiment: Determination of the hypotensive and positive inotropic activity in the cat. The format is in vivo. The following applies: for change in vivo at 0.1 mg/kg / change in vivo at 0.5 mg/kg: Felis catus, iv, read-out: Change of dp/dt in %. The protocol: TEST 2. DETERMINATION OF THE HYPOTENSIVE AND POSITIVE INOTROPIC ACTIVITY IN THE CAT
The tests were performed in cats which were anesthetized with pentobarbital sodium (40 mg/kg i.p.). The animals breathed spontaneously. The arterial blood pressure was measured in the aorta abdominalis by a Statham pressure transducer (P 23 Dc). The positive inotropic effect was determined by measuring the pressure in the left […] by means of a catheter tipmanometer (Millar PC 350 A). This contractility parameter dp/dtmax was registered by means of an analog differentiating circuit. The substances under test were injected into a vena femoralis. Physiological sodium […] solution or polydiol 200 was used as solvent.

SMILES strings stand for the structures. Bounds are passed on as bounds.

Regarding `CC1CC(=O)NN=C1c1ccc2[nH]c(C(F)(F)F)nc2c1` (centres unmarked) [B, 2-Trifluoromethyl-5(6)-(5-methyl-3-oxo-4,5-dihydro-2H-6-pyridazinyl)-benzimidazole], a half-maximal response in the data set on thrombocyte aggregation (EC50) required 100 nM. In data set [1], the LD50 at 336 h was above 450 mg/kg. For the same molecule, the animals died in the data set on white mice (450 mg/kg p.o.) is given as 0 out of 6. In the data set with cats (0.1 mg/kg i.v.), the “Change of blood pressure, first value of the pair (before the slash)” value (“Change of blood pressure … (before the slash)” for short) is -65 mgm Hg; the “Change of blood pressure, second value of the pair (after the slash)” value (“Change of blood pressure … (after the slash)” below) is -35 mgm Hg; the “Duration of action” value is above 55 min; the change in vivo at 0.1 mg/kg was determined as 91%. In addition, in the data set on cats (0.5 mg/kg i.v.), the “Change of blood pressure … (before the slash)” value was -49 mgm Hg; the “Change of blood pressure … (after the slash)” value is -43 mgm Hg; the “Duration of action” value is above 99 min; the change in vivo at 0.5 mg/kg turned out to be 143%.
For the molecule `Cc1nc2cc(C3=NNC(=O)CC3C)ccc2[nH]1` (centres unmarked) [Compound A, 2-Methyl-5(6)-(5-methyl-3-oxo-4,5-dihydro-2H-6-pyridazinyl)-benzimidazole], a half-maximal effect with thrombocyte aggregation (EC50) was put at 10 nM. The LD50 at 336 h in data set [1] is above 600 mg/kg. In the data set on white mice (600 mg/kg p.o.), the animals died is listed as 1 out of 3. Further, in the data set with cats (0.1 mg/kg i.v.), the “Change of blood pressure … (before the slash)” value is listed as -26 mgm Hg; the “Change of blood pressure … (after the slash)” value was -24 mgm Hg; the “Duration of action” value was above 24 min; the change in vivo at 0.1 mg/kg is 53%. For the same molecule, in the data set with cats (0.5 mg/kg i.v.), the “Change of blood pressure … (before the slash)” value is -35 mgm Hg; the “Change of blood pressure … (after the slash)” value is -42 mgm Hg; the “Duration of action” value is above 187 min; the change in vivo at 0.5 mg/kg amounted to 116%.
In the case of `COc1ccc(-c2nc3ccc(C4=NNC(=O)CC4C)cc3[nH]2)cc1` (centres unmarked) [G, 2-(4-Methoxy-phenyl)-5(6)-(5-methyl-3-oxo-4,5-dihydro-2H-6-pyridazinyl)-benzimidazole], in the data set on thrombocyte aggregation, the midpoint of the response, the EC50, lay at 80 nM. Further, the LD50 at 336 h in data set [1] is around 600 mg/kg. In addition, the animals died in the data set on white mice (600 mg/kg p.o.) is recorded as 3 out of 6. For the same molecule, in the data set with cats (0.1 mg/kg i.v.), the “Change of blood pressure … (after the slash)” value is 0 mgm Hg; the “Duration of action” value was above 26 min; the change in vivo at 0.1 mg/kg was determined as 23%. Also, in the data set with cats (0.5 mg/kg i.v.), the “Change of blood pressure … (before the slash)” value is -18 mgm Hg; the “Change of blood pressure … (after the slash)” value is given as -18 mgm Hg; the “Duration of action” value is above 72 min; the change in vivo at 0.5 mg/kg stood at 64%.

These data come from patent US4361563A, “Pyridazinone-substituted benzimidazoles and salts” (priority 1978, dated 1982).
